From patent US6656690B2, “Mass spectrometric methods for biomolecular screening” (priority 1998, dated 2003)

Biological target: 27-mer model of the bacterial A site region, chimeric C
Test: Binding to 27-mer A site model as chimeric 2'-O-methylribonucleotide with three deoxyadenosines (C)
Conditions: RNA C
Procedure: The 27-mer model of a segment of the bacterial A site region has been prepared as a full ribonucleotide (see FIG. 27, compound R), and as a chimeric 2′-O-methylribonucleotide containing three deoxyadenosine residues (see FIG. 27, compound C). RNAs R and C have been prepared using conventional phosphoramidite chemistry on solid support. Phosphoramidites were purchased from Glen Research and used as 0.1 M solutions in acetonitrile. RNA R was prepared following the procedure given in Wincott, et al., Nucl. Acids Res., 1995, 23, 2677-2684, the disclosure of which is incorporated herein by reference in its entirety. RNA C was prepared using standard coupling cycles, deprotected, and precipitated from 10 M NH4OAc. The aminoglycoside paromomycin binds to both R and C with kD values of 0.25 and 0.45 micromolar, respectively. The reported kD values are around 0.2 μM. […]
The mass spectrum obtained from a 5 μM solution of C mixed with 125 nM paromomycin (FIG. 28A) contains [M-5H]5− ions from free C at m/z 1783.6 and the [M-5H]5− ions of the paromomycin-C complex at m/z 1907.3. […] Signals from the [M-4H]4− ions of C and the complex are detected at m/z 2229.8 and 2384.4, respectively. […] Fragment ions are detected at m/z 1005.6 (w6)2−, 1065.8 (a7-B)2−, 1162.6 (w7)2−, 1756.5 (M-Ad)5−, 2108.9 (w21-Ad)3−, 2153.4 (a20-B)3−, 2217.8 (w21)3−, and 2258.3 (a21-B)3−. […]

Structure (SMILES): NC[C@@H]1O[C@H](O[C@H]2[C@@H](O)[C@H](O[C@@H]3[C@@H](O)[C@H](N)C[C@H](N)[C@H]3O[C@H]3O[C@H](CO)[C@@H](O)[C@H](O)[C@H]3N)O[C@@H]2CO)[C@H](N)[C@@H](O)[C@@H]1O [paromomycin]
- Kd: 0.45 µM
